From patent publication US20080255244A1, “CaM Kinase II Inhibitor Improves Retinoic Acid Therapy and Inhibits the Proliferation of Myeloid Leukemia Cells” (Fred Hutchinson Cancer Research Center, priority 2007, published 2008) come the findings set out here.

Assay type in all cases: cell-based, human
The subject of test [1] is activated CaMKIIγ in KCL22 cells. Description: Western blot of CaMKIIγ autophosphorylation in KCL22 cells. The following applies: five days ATRA. As for the experimental part: FIG. 9. Terminal differentiation/apoptosis of myeloid leukemia cells is associated with decreased CaMKIIγ activation. (A) Lysates from the HL60, NB4 and U937 myeloid cell lines treated with ATRA (1 μM) for the indicated period of time were subjected to Western blots. (B) Lysates from the indicated myeloid cell lines treated for five days with the indicated concentration of ATRA were subjected to Western blots. (C) Lysates from HL60 cells treated with TPA (0.1 μM) for the indicated time were subjected to Western blots. (D) Lysates from NB4 cells treated with arsenic trioxide (1 uM) for the indicated time were subjected to Western blots.
Antibodies and Western blots. Protein extracts, immunoprecipitations and Western blots were performed as previously detailed (Si J, Collins S J. IL-3-induced enhancement of retinoic acid receptor activity is mediated through Stat5, which physically associates with retinoic acid receptors in an IL-3-dependent manner. Blood 100: 4401-9 (2002)). Antibodies against CaMKI, CaMKIIγ, CaMKIV, c-myc, Stat3, Stat5, calmodulin, as well as the phosphospecific CaMKII (T286, 287) and phosphospecific CaMKI (T177) antibodies were from Santa Cruz Biotechnology. […]

Test [2] relates to C/EBPε expression in HL60. Description: Western blot of C/EBPε expression in HL60 cells. To be noted: ATRA 1 uM. Here is the method: (§1) FIG. 6. Retinoic acid induces changes in the association of CaMKIIγ with the C/EBPε promoter RARE. […] (B) The human C/EBPε 5′ region indicating the location of the ChIP PCR primers. (C) ChIP assays. HL60 cell chromatin from cells treated with ATRA (1 uM) for the indicated time was immunoprecipitated with the indicated antibodies, the DNA isolated and subjected to PCR utilizing the indicated C/EBPε promoter primer pairs.
Protein extracts, Western blotting and co-immunoprecipitations. Westerns and co-immunoprecipitations were performed as previously detailed (Si, J., and Collins, S. J., Blood 100:4401-4409 (2002)).

Test [3] has as its system C/EBPε RARE. Briefly: ChIP at the C/EBPε promoter RARE in HL60 cells. The following applies: ATRA 1 uM. As for the experimental part:
as §1
ChIP. HL60 cells incubated for various periods of time after ATRA (1 μM) treatment were harvested and crosslinked using 1% formaldehyde for 15 minutes at 37° and incubated another 15 minutes at room temperature with 125 mM glycine. Cells then were rinsed and washed three times with cold PBS. The cell pellets were resuspended in 0.2-2 ml of SDS lysis buffer (1% SDS, 10 mM EDTA, […] Tris-HCL, pH 8.1) with protease inhibitors(1 μg/ml leupeptin, […] aprotinin, 1 mM PMSF, 1 μg/ml pepstatin A, 10 μM antipain, 10 μM bestatin, 1 mM NaF, and 1× phosphatase inhibitor cocktail I/II) and sonicated three times at 20 s each to reduce DNA length to 200-800 bp. Supernatants were collected by centrifugation for 10 minutes at 13,200 rpm at 4° and diluted in 10 fold dilution buffer (0.01% SDS, 1.1% Triton X-100, 1.2 mm EDTA, 16.7 mM Tris-HCl, pH 8.1, 167 mM NaCl) with the above protease inhibitors. […]

Test [4] has as its system Kasumi cells. Description: Kasumi proliferation in liquid suspension culture. Here is the method: FIG. 11. […] (A) K562 cells were seeded in liquid suspension culture at 5×10^4 cells/ml in the presence or absence of the indicated concentration of compounds, and cell counts were obtained at the indicated time. (B) The indicated myeloid leukemia cell lines were seeded in liquid suspension culture at 5×10^4 cells/ml in the presence or absence of KN93, and cell counts obtained at the indicated time. (C) K562 cells were electroporated with the LXSN expression vector harboring the kinase dead, Lys^43 mutated, truncated CaMKII construct (kdCaMKII) as well as with the control (empty) LXSN vector. The electroporated cells were diluted into 96 well plates in liquid suspension culture in the presence of G418 (1 mg/ml). Following eight days of culture the total number of discrete, actively proliferating G418 resistant colonies within individual wells was determined.
Cell lines. All leukemia cell lines are cultured at 37° in RPMI supplemented with 5% heat-inactivated fetal calf serum.

Test [5] concerns K562 cells. Briefly: Western blots of signal transduction pathways in K562 cells. The following applies: K562 cultured in KN93. As for the experimental part: FIG. 12. CaMKII regulates multiple signal transduction pathways in myeloid cells. (A,B) Lysates from K562 cells cultured for the indicated time in KN93 were subjected to Western blots. (C) The K562 cells transduced as described in Materials and Methods with either (i) the doxycycline (DOX) inducible expression vector/transactivator harboring the full length, Lys^43 mutated, kinase dead CaMKIIγ (kdCaMKIIγ (Tet-on)) or (ii) the CaMKII shRNA generating plasmids, were cultured in liquid suspension in the presence or absence of DOX as indicated, and cell counts obtained after 48 hours. (D) Lysates from K562 cells transduced with the indicated vectors were subjected to Western blots utilizing the indicated antibodies. For lanes 2 and 4 doxycycline (DOX) treatment was for two days.
Antibodies and Western blots. Protein extracts, immunoprecipitations and Western blots were performed as previously detailed (Si J, Collins S J. IL-3-induced enhancement of retinoic acid receptor activity is mediated through Stat5, which physically associates with retinoic acid receptors in an IL-3-dependent manner. Blood 100: 4401-9 (2002)). Antibodies against CaMKI, CaMKIIγ, CaMKIV, c-myc, Stat3, Stat5, calmodulin, as well as the phosphospecific CaMKII (T286, 287) and phosphospecific CaMKI (T177) antibodies were from Santa Cruz Biotechnology. Antibodies against phospho-Stat1 (Ser727), phospho-Stat3 (Ser727 and Tyr 705), phospho-Stat5 (Tyr 694), phospho-p44/42 MAP kinase (Thr202/Tyr 204), p44/42 MAP kinase, phospho-p38 MAP kinase (Thr 180/Tyr 182), phospho-GSK3β (Ser9) were from Cell Signaling Technology. Antibodies against Stat1, GSK3β, β-catenin, PP2Ac, and cyclin D1 were from BD Biosciences.
On the technique in general: Immunoblotting shows a protein as a band on a membrane.

Regarding `CC1=C(/C=C/C(C)=C/C=C/C(C)=C/C(=O)O)C(C)(C)CCC1` [ATRA, All-trans retinoic acid], the “activated CaMKIIγ level” value in test [1] is recorded as “did not exhibit any decrease”. Besides, the C/EBPε expression result in test [2] is “enhanced”. In addition, in test [3], the “association of corepressors N-CoR and SMRT with the C/EBPε RARE” value is given as “rapid displacement”. Also, in test [3] (observed as early as 1-2 hours), the “association of CaMKIIγ with the C/EBPε RARE” value is “dissociation”.
Take `COc1ccc(S(=O)(=O)N(CCO)c2ccccc2CN(C)C/C=C/c2ccc(Cl)cc2)cc1` [KN-93]: in test [4], the cell proliferation result was “inhibition” and the “cell viability or morphologic differentiation” value was “without any significant effect”. In addition, in test [5], the “GSK3β Ser9 phosphorylation” value was “marked reduction”; the “activation (phosphorylation) of p38” value is recorded as “decrease”; the “activation (phosphorylation) of pMAPK p44/42” value is “decrease”; the “activation (phosphorylation) of pStat3 (Y705, S727)” value was “decrease”. Besides, in test [5], the “activation (phosphorylation) of pStat5 (Y694)” value is “decrease”, the c-myc protein level result was “reduction”, the “cyclin D1 protein level” value is on record as “reduction” and the “expression of β-catenin” value is listed as “marked reduction”. The “total levels of these phosphorylated proteins” value in test [5] is recorded as “not accompanied by any change”.
